Assay results reported in patent publication US12643891B2, “SPAK/OSR inhibitors and methods of using same” (YALE UNIVERSITY, priority 2019, dated 2026).

Experiments:
GBM cell lines [1] = assay: Annexin V apoptosis assay in GBM cell lines; format: cell-based, human; conditions: 1 μM, four GBM cell lines
Protocol: FIG. 37 depicts annexin V assays performed on four GBM cell lines after 1 μM of (6a) or vehicle control.

GBM cell lines [2] = assay: Glioblastoma cell proliferation / viability (MTT); format: cell-based, human; conditions: FIG. 30
Protocol: Glioblastoma cells were plated in triplicates in 96-well plates at a cell density of 10,000 cells per well and incubated with increasing concentrations of (7a) inhibitor for 72 hs. Cell viability was determined by Thiazolyl Blue Tetrazolium Bromide (MTT) assay (Sigma) according to manufacturer instructions. IC50 was determined using GraphPad software by non-linear regression analysis (log (inh) vs. normalized response).

GBM cells [3] = assay: Cell cycle FACS analysis of GBM cell lines; format: cell-based, human; conditions: 2 μM
Protocol: FIG. 38A: Example cell cycle FACS data for 612 cells treated with 2 μM of (6a). FIG. 38B: Cell cycle analysis of GBM cell lines treated with 2 μM of (6a).

GBM 612, GBM120 = assay: Temozolomide IC50 in combination with (6a) in GBM cell lines; format: cell-based, human
Text: FIG. 39 depicts that the IC50 values for temozolomide (TMZ) decrease 2-4 fold when used in combination (6a) in two different GBM cell lines (GBM 612, GBM120).

pancreatic cancer cells = assay: Pancreatic cancer cell migration in vitro; format: cell-based; conditions: FIG. 36
primary human astrocytes = assay: Migration of primary human astrocytes; format: cell-based
[4] = system: GMB intracranial xenograft; assay: Human GBM intracranial xenograft mouse model; format: in vivo
Text: FIGS. 32A-32B illustrate that (6a) reduces tumor growth in vivo in a human GMB intracranial xenograft mouse model. FIG. 32A: Schematic of the human GMB intracranial xenograft. FIG. 32B: Tumor growth profiles at two (6a) doses.

GBM cells [5] = assay: Clonogenicity of GBM cells after (6a) pre-treatment and irradiation; format: cell-based, human; conditions: 24 hs pre-treatment 1 μM, irradiated; 15 days after treatment
Protocol: (§1) FIGS. 40A-40C depict that SPAK/OSR1 inhibition sensitizes GBM to radiation and decreases expression of DNA damage response genes. FIG. 40A: GBM cells were pre-treated for 24 hs with 1 μM (6a) or vehicle control and irradiated. After 72 hs, cells were re-plated to study clonogenicity. […] FIG. 40C: Expression of DNA damage response genes by RNAseq in cells treated with (6a) for 6 hs (dashed line delimits p<0.05).

melanoma cells = assay: Melanoma cell migration in vitro; format: cell-based; conditions: FIG. 35
SPAK = biological target: T1, SPAK (Homo sapiens, UniProt Q9UEW8); assay: In vitro SPAK ELISA assay monitoring NKCC1 phosphorylation (T^PNKCC1 antibody); format: biochemical; conditions: screening platform, FIG. 21; read-out: in vitro IC50
T1 construct: GST (N, cleaved yes); made in house; host or cells: E. coli EcAR7 with Sep-OTS

[6] = Formulation/tolerance test, intracranial, healthy tumor free mice; format: in vivo; conditions: 100 μM in DMSO/PEG formulation, intracranially
Protocol: FIG. 41 depicts treating healthy, tumor free, mice (ms_#) intracranially with a DMSO/PEG formulation containing vehicle or 100 μM (6a).

PARP-1 = PARP-1 Western blot in GBM cells; format: cell-based, human; conditions: after 24 hs
Protocol: as §1

primary GBM cells = assay: Nanogrooved pattern glioblastoma cell migration assay; format: cell-based, human; conditions: in vitro
Protocol: Cell culture: All primary cell lines were derived from intraoperative tissue samples from patients treated surgically for newly diagnosed glioblastoma multiforme without prior treatment. Primary cells were cultured in Dulbecco's Modified Eagle Medium: Nutrient Mixture F-12, B27 serum free supplement (Gibco), 20 ng/mL epidermal growth factor (EGF), and 20 ng/ml fibroblast-derived growth factor (FGF).
Nanogrooved pattern cell migration assay: Migration of glioma cells was quantified using a novel directional migration assay using nano-ridges/grooves of 400 nm in groove width, 400 nm in ridge width, and 500 nm in depth, constructed of transparent poly(urethane acrylate) (PUA), and fabricated using UV-assisted capillary lithography (Kim & Eberwine, 2010, Anal. Bioanl. Chem. 397:3173-3178). Cells were cultured on glass covered with a nanogrooved pattern substratum, which was previously glued onto the bottom surface of the custom-made Mat-tek dish (P35G-20-C). […] Cell migration was quantified using time-lapse microscopy using a motorized inverted microscope (Olympus IX81) equipped with a Cascade 512B II CCD camera and temperature and gas controlling environmental chamber. Phase-contrast and epi-fluorescent cell images were automatically recorded under 4*1.6× objective using the Slidebook 4.1 (Intelligent Imaging Innovations, Denver, CO) for 10 hours at 10 minute intervals. […]

COc1ccc(Nc2ncc(C#N)c(Nc3ccccc3C(N)=O)n2)cc1N1CCN(C)CC1 [(6a), 2-((5-cyano-2-((4-methoxy-3-(4-methylpiperazin-1-yl)phenyl)amino)pyrimidin-4-yl)amino)benzamide]
apoptosis in GBM cell lines (GBM cell lines [1]): induces apoptosis
proliferation and viability of primary GBM cell lines (GBM cell lines [2]): impedes proliferation and viability
cell cycle arrest in GBM cells (GBM cells [3]): induces G2-M arrest
decrease of temozolomide (TMZ) IC50 in combination with (6a) (GBM 612, GBM120): 2-4 fold
pancreatic cancer cell migration (pancreatic cancer cells): reduced
activity on primary human astrocytes (migration) (primary human astrocytes): not active
overall survival [4]: extended overall survival
tumor growth [4]: reduction in tumor growth
tumor volume [4]: reduced tumor volume
clonogenic potential after irradiation (GBM cells [5]): lowest in the combination treatment
melanoma cell migration (melanoma cells): reduced melanoma cell migration
IC50 (SPAK): ~0.06 µM
tolerance [6]: well tolerated
full length PARP-1 level (PARP-1): decrease full length PARP-1
migration of primary GBM cells (primary GBM cells): reduced migration of primary GBM cells
